“Also recorded” adds a separate entry of the source. Where two headings read alike, the source gives them in different places.

One test relates to Tg2576 mice. As to the kind of experiment: Aβ42/Aβ40 ratio in brains of Tg2576 mice. It is filed as in vivo, mouse. Conditions: Tg2576 transgenic mice.
In test [1] the test system is Aβ42. As to the kind of experiment: Aβ42 ELISA in Hela-APPsw cells transfected with siRNA against PLC isoforms and treated with Rg3. It is filed as cell-based, human. The method, then:
FIG. 18A-B. Role of PLC γ1 in Aβ42-lowering activity of ginsenosides. (A) Hela-APPsw cells transfected with specific siRNA against PLCβ3, PLC γ1 and PLC γ2 were treated with either DMSO or 15 μM Rg3 for 6 hr. The down regulation of PLCβ3, PLCγ1 and PLCγ2 was confirmed by Western blot using isoform-specific antibodies. (B) Effects of RNAi-mediated downregulation of PLC isoforms in the presence of Rg3 treatment. Aβ42 levels were measured in the conditioned media by ELISA. Aβ values are shown as percentage of control siRNA and are the mean ±s.d. from three independent experiments (*P<0.001, **P<0.01 using ANOVA followed by Dunnett's test). (77,78)
Hela cells stably expressing Swedish FAD mutant APP (Hela-APPsw cells) were treated with small interfering RNA (siRNA) selective against various PLCβ(β1-4) and PLCγ (γ1, 2) isoforms.

Another test has as its system hippocampal slices. As to the kind of experiment: Long-term potentiation (fEPSP slope) in hippocampal slices treated with Aβ42. From the text: FIG. 5. […] The field excitatory post synaptic potential slope (FEPSP slope) in hippocampal slices that were untreated or treated with Aβ42 (Aβ) or Aβ42 and 20(S)Rg3 was monitored over time.
PIP2 modulation rescues Aβ oligomer-induced synaptic dysfunction.

Test [2] has as its system Aβ42. As to the kind of experiment: Aβ42 versus Aβ40 production in cell lines treated with ginsenosides. It is filed as cell-based. The following applies: cell lines and primary neurons. The text has this:
(§1) Of note, γ-secretase inhibitors and non-steroidal anti-inflammatory drugs were not found to reverse these CCE defects (FIG. 17A-B). Ginsenosides such as (20S)Rg3 may therefore, unlike other Aβ42-lowering agents, also ameliorate the defect in CCE associated with Aβ. The following data support the role of PLCγ1 as a common upstream target modulating CCE as well as Aβ42 levels.

The subject of test [3] is Aβ42. The test is described as follows: Aβ42 in cultured hippocampal primary neurons from Tg2576 mice. It is filed as cell-based, mouse. The following applies: for Aβ42 in cultured hippocampal primary neurons: primary neurons from Tg2576 mice.
Source text: FIG. 15A-B. (A) Rk1 and (20S)Rg3 decrease Aβ42 in cultured hippocampal primary neurons from Ad-model Tg2576 mice.
as §1

In another test the test system is PIP2. The test is described as follows: Steady-state PIP2 levels determined by HPLC in HeLa cells overexpressing APPsw. The following applies: HeLa cells stably overexpressing Swedish variant of human APP. It counts as cell-based. From the text:
(§2) FIG. 2A-E. Changes in PIP2 levels correlate with Aβ42 biogenesis. PIP2 levels (A) and Aβ42 biogenesis (D) in HeLa cells overexpressing human APPsw treated with either PLC inhibitor edelfosine (EDEL) or its active analog miltefosine (MILT). PIP2 levels (B) and Aβ42 biogenesis (E) in HeLa cells overexpressing human APPsw treated with PLC activator m-3m3FBS (M3M). (C) Modulation of PIP2 levels correlates with Aβ42 biogenesis. HeLa cells stably overexpressing the Swedish variant of human APP were treated with either control (DMSO), PLC inhibitor edelfosine (EDEL) or its active analog miltefosine (MILT). Steady-state PIP2 levels were determined by HPLC.

Test [4] concerns Aβ42. As to the kind of experiment: Aβ42 biogenesis in HeLa cells overexpressing APPsw. Conditions: HeLa cells stably overexpressing Swedish variant of human APP. It is filed as cell-based.
Source text: as §2

A further test deals with full-length APP (FL-APP). The test is described as follows: Steady-state full-length APP by Western blot in treated HeLa APPsw cells. It counts as cell-based, human. The following applies: Western blot analysis. The method, then: Full length APP and total Aβ biogenesis are not affected in treated cells. Modulation of PIP2 levels correlates with Aβ42 biogenesis. HeLa cells stably overexpressing the Swedish variant of human APP were treated with either control (DMSO), PLC inhibitor edelfosine (EDEL) or its active analog miltefosine (MILT). Steady-state PIP2 levels were determined by HPLC.

Test [5] deals with presenilin/γ-secretase (Aβ42). As to the kind of experiment: Aβ42 biogenesis in HEK293 cells transiently transfected with C99 (direct γ-secretase substrate). It counts as cell-based. Here is the method: (§3) FIG. 3A-F. PIP2 levels modulate Aβ biogenesis via two mechanisms. PIP2 levels modulate the release of soluble APP ectodomain into the medium. HeLa cells stably expressing APPsw were treated with either PLC inhibitors (EDEL, MILT) or PLC activator (M3M). Conditioned cell media were analyzed for secreted APP ectodomains generated by α-(sAPPα) (A) and β-secretase (sAPPβ) (B) cleavage. Aβ42 (D) and total Aβ biogenesis (C) in HEK293 cells transiently transfected with C99, C-terminal stub of APP that serves as a direct γ-secretase substrate, in the presence of PIP2 level modulator, EDEL. Aβ42 (F) and total Aβ biogenesis (E) in HEK293 cells transiently transfected with C99, C-terminal stub of APP that serves as a direct γ-secretase substrate, in the presence of PIP2 level modulator, M3M.
(§4) PIP2 levels modulate Aβ biogenesis via two distinct mechanisms. The metabolites of PIP2, including IP3 and DAG, have been implicated in APP processing pathways (69, 70, 71). Under normal conditions, PIP2 hydrolysis (to generate IP3 and DAG) favors the generation of α-secretase-generated secreted APP ectodomain (sAPPα). […] To more clearly define the role of PIP2 in modulating γ-secretase activity (e.g. Aβ42), we next expressed an APP-C99 construct, an ectopic γ-secretase substrate which resembles β-secretase-generated, membrane-associated APP stub in heterologous cells.

For a further test, the system named is α-secretase (sAPPα). The test is described as follows: Secreted APP ectodomain generated by α-secretase (sAPPα) in conditioned media of HeLa APPsw cells. Conditions: HeLa cells stably expressing APPsw. It counts as cell-based, human. Here is the method: as §3, §4
In the next test the test system is β-secretase (sAPPβ). The test is described as follows: Secreted APP ectodomain generated by β-secretase (sAPPβ) in conditioned media of HeLa APPsw cells. It is filed as cell-based, human. Conditions: HeLa cells stably expressing APPsw. Here is the method:
as §3, §4

In the case of `CC(C)=CCC[C@](C)(O)[C@H]1CC[C@]2(C)[C@@H]1[C@H](O)C[C@@H]1[C@@]3(C)CC[C@H](O[C@@H]4O[C@H](CO)[C@@H](O)[C@H](O)[C@H]4O[C@@H]4O[C@H](CO)[C@@H](O)[C@H](O)[C@H]4O)C(C)(C)[C@@H]3CC[C@]12C` [(20S)Rg3], the entries for the “Aβ42/Aβ40 ratio in the brains” value with Tg2576 mice and with Tg2576 mice (listed as Rg3) were “decreases the ratio of Aβ42 to Aβ40” and “decreased Aβ42/Aβ40 ratio”, respectively. In addition, the “Aβ42-lowering effect with PLCβ3 expression inhibited by siRNA” value in the test with Aβ42 [1] (15 μM Rg3 for 6 hr, PLCβ3 siRNA) is “nearly abolished”. Besides, the “Aβ42-lowering effect with PLCγ1 expression inhibited by siRNA” value in the test on Aβ42 [1] (15 μM Rg3 for 6 hr, PLCγ1 siRNA) is “nearly abolished”. In addition, in the test on Aβ42 [1] (PLCγ1 suppressed), the “reduction of Aβ42 generation when PLCγ1 levels are suppressed (dose-response experiments)” value was “far less effective”. The “long-term potentiation (fEPSP slope) in the presence of Aβ42” value is given as “blocks Abeta oligomer-induced inhibition of long-term potentitation” with hippocampal slices, “increases LTP expression relative to untreated hippocampal slices” in the test on hippocampal slices (listed as 20(S)Rg3) and “blocks Aβ42 oligomer-induced synaptic dysfunction” in the test with hippocampal slices (listed as SMT-3). For the same compound, the “Aβ37 and Aβ38” value in the test on Aβ42 [2] is recorded as “concomitant increase”. For the same compound, the “Aβ42 production relative to Aβ40” value in the test with Aβ42 [2] is “preferentially lower the production of Aβ42; also recorded: also selectively decreases Aβ42 relative to Aβ40”. Moreover, the “Aβ42/Aβ40 ratio in cultured neurons” value with Aβ42 [3] (cultured neurons) is on record as “decreased Aβ42/Aβ40 ratio”. In addition, the “Aβ42 in cultured hippocampal primary neurons” value with Aβ42 [3] is “decrease Aβ42”.
Turning to `C=C(CCC=C(C)C)[C@H]1CC[C@]2(C)[C@@H]1[C@H](O)C[C@@H]1[C@@]3(C)CC[C@H](O[C@@H]4O[C@H](CO)[C@@H](O)[C@H](O)[C@H]4O[C@@H]4O[C@H](CO)[C@@H](O)[C@H](O)[C@H]4O)C(C)(C)[C@@H]3CC[C@]12C` [Rk1], in the test on Aβ42 [2], the “Aβ37 and Aβ38” value is recorded as “concomitant increase”; the “Aβ42 production relative to Aβ40” value is “preferentially lower the production of Aβ42; also recorded: selectively decreases Aβ42 relative to Aβ40”. Further, the “Aβ42 in cultured hippocampal primary neurons” value in the test on Aβ42 [3] is “decrease Aβ42”.
Regarding `CCCCCCCCCCCCCCCCCCOCC(COP(=O)([O-])OCC[N+](C)(C)C)OC` (stereo not shown) [edelfosine, Edelfosine], in the test on PIP2 (vs control (DMSO)), the “increase in the steady-state levels of PIP2” value was approximately 10%. The “decrease in the levels of Aβ42” value in the test with Aβ42 [4] (vs control (DMSO)) was 37.3%.
With `Cc1cc(C)c(S(=O)(=O)Nc2cccc(C(F)(F)F)c2)c(C)c1` [m-3m3FBS], the “effect on steady-state levels of full-length APP (FL-APP)” value in the test on full-length APP (FL-APP) was “No significant effects”. Also, in [5], the “effect on Aβ42 in C99-transfected cells” value is recorded as “Aβ42-promoting activity”. Moreover, the sAPPα generation entry in the test on α-secretase (sAPPα) is “decreases in sAPPα”. Besides, the “decrease in the steady state levels of PIP2” value in the test with PIP2 is given as approximately 11%. The “increase in Aβ42” value with Aβ42 [4] is on record as 37.2%. Also, in the test on β-secretase (sAPPβ), the sAPPβ secretion result is reported as “dramatic increase”.
Regarding `CCCCCCCCCCCCCCCCOP(=O)([O-])OCC[N+](C)(C)C` [miltefosine], in the test on α-secretase (sAPPα), the sAPPα generation result was “increases in sAPPα generation”. In the test on β-secretase (sAPPβ), the sAPPβ secretion entry was “reduction in sAPPβ secretion”.

Source of the values: patent publication US20080312187A1, “PHOSPHOINOSITIDE MODULATION FOR THE TREATMENT OF ALZHEIMER'S DISEASE” (priority 2005, published 2008).
